Experimental data as given in ChEMBL document CHEMBL4507268 (2021).

Legend:
Details in all cases: Compound concentration 1.0 uM
[1] = biological target: T1, Muscle, skeletal receptor tyrosine-protein kinase (Homo sapiens) (UniProt O15146)
T1 sequence (whole entry): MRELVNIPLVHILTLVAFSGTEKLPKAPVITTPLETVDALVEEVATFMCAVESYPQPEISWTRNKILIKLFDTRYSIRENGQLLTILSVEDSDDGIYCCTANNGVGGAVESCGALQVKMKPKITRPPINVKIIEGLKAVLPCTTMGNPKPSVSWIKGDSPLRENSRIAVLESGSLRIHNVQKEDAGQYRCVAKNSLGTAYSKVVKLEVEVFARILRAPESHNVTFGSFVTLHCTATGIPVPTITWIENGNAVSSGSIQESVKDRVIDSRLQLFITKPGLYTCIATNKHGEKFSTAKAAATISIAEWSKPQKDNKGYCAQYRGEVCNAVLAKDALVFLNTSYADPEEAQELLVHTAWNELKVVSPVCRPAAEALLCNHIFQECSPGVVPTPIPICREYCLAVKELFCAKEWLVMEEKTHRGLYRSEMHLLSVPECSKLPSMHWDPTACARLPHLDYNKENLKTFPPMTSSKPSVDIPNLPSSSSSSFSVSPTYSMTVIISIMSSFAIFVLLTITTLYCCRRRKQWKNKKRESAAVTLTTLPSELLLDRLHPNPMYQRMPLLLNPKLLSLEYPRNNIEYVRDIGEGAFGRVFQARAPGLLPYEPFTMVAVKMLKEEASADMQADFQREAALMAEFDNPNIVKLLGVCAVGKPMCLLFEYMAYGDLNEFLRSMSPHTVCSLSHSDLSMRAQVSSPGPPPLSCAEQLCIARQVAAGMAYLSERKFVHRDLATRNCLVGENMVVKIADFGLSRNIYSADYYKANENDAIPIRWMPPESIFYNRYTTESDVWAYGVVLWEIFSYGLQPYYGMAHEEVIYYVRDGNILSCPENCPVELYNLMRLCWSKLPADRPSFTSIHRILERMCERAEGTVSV

[2] = biological target: Serine/threonine-protein kinase WNK2 (Homo sapiens) (UniProt Q9Y3S1)
[3] = biological target: Interferon-induced, double-stranded RNA-activated protein kinase (Homo sapiens) (UniProt P19525)
[4] = biological target: Death-associated protein kinase 1 (Homo sapiens) (UniProt P53355)
[5] = biological target: T2, Serine/threonine-protein kinase Nek3 (Homo sapiens) (UniProt P51956)
T2 sequence (whole entry): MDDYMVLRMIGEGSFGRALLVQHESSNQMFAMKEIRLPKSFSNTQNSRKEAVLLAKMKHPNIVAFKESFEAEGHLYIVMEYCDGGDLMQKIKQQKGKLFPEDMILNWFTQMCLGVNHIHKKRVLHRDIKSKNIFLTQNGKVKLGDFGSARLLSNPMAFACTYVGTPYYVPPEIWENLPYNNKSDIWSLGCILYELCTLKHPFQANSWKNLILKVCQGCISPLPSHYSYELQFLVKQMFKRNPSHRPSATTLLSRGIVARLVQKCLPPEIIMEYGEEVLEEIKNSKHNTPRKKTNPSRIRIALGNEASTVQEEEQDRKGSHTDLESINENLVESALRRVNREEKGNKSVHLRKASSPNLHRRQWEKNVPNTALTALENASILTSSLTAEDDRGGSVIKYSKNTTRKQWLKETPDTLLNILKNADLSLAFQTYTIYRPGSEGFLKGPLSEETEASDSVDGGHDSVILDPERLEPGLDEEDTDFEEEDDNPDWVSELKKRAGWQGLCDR

[6] = biological target: Tyrosine-protein kinase Lck (Homo sapiens) (UniProt P06239)
[7] = biological target: Mitogen-activated protein kinase 11 (Homo sapiens) (UniProt Q15759)
[8] = biological target: G protein-coupled receptor kinase 6 (Homo sapiens) (UniProt P43250)
[9] = biological target: Protein kinase C beta type (Homo sapiens) (UniProt P05771)
[10] = biological target: Serine/threonine-protein kinase 26 (Homo sapiens) (UniProt Q9P289)
[11] = biological target: T3, Serine/threonine-protein kinase D1 (Homo sapiens) (UniProt Q15139)
T3 sequence (whole entry): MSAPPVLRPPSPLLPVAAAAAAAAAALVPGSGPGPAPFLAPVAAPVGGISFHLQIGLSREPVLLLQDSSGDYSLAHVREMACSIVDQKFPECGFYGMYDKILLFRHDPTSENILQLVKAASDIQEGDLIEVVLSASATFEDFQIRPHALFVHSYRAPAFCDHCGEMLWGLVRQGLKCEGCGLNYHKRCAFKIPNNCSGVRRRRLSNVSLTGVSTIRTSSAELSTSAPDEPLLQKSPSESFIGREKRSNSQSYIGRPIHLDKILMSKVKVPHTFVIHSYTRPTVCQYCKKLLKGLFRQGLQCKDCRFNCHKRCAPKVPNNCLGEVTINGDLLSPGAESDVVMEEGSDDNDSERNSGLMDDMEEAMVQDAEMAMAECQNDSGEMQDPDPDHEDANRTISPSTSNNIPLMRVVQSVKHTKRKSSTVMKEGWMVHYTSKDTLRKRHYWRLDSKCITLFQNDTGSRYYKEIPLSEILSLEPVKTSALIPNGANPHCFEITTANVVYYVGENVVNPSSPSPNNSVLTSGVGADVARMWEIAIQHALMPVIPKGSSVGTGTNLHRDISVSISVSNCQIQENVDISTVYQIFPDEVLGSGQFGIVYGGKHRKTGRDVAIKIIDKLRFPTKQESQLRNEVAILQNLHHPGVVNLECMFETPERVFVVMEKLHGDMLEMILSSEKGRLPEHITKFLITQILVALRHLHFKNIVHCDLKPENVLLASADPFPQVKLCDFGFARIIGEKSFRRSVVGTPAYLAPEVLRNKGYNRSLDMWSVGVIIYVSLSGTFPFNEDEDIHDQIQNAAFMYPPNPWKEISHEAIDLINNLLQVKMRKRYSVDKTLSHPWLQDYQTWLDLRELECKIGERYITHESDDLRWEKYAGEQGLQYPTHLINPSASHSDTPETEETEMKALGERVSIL

[12] = biological target: Tyrosine-protein kinase Lyn (Homo sapiens) (UniProt P07948)

Measured: % residual kinase activity

Protein kinase C beta type (Homo sapiens), sequence (P05771 2-671 limits assumed): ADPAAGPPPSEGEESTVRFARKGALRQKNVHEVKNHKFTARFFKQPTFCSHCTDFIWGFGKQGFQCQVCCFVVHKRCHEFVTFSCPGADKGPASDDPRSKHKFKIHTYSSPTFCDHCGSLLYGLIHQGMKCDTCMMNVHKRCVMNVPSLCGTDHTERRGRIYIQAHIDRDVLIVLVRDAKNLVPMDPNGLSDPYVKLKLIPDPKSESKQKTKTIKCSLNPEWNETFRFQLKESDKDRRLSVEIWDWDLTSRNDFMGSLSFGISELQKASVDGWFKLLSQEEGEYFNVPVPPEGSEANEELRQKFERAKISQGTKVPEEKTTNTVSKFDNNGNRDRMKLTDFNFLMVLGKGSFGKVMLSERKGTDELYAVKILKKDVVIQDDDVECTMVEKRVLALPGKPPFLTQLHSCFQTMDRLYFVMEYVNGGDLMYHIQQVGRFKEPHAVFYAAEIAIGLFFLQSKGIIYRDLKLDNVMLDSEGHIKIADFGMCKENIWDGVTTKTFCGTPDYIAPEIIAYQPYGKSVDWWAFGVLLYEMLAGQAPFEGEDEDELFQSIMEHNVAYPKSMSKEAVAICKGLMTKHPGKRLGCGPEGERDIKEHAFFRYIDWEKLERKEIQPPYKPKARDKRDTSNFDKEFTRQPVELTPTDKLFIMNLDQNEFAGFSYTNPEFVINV
Serine/threonine-protein kinase 26 (Homo sapiens), sequence (Q9P289 2-416 limits assumed): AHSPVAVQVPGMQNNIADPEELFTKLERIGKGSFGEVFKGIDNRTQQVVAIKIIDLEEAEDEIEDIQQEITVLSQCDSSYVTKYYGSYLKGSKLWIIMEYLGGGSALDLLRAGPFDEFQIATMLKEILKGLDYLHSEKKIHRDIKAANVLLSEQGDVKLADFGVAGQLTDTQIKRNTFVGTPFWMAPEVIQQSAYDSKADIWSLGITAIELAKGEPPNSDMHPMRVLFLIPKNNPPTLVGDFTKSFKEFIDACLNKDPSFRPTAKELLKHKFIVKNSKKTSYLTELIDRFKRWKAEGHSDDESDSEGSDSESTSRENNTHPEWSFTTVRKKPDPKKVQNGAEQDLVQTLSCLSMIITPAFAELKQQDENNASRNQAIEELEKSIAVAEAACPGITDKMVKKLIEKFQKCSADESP
Interferon-induced, double-stranded RNA-activated protein kinase (Homo sapiens), sequence (P19525 whole entry): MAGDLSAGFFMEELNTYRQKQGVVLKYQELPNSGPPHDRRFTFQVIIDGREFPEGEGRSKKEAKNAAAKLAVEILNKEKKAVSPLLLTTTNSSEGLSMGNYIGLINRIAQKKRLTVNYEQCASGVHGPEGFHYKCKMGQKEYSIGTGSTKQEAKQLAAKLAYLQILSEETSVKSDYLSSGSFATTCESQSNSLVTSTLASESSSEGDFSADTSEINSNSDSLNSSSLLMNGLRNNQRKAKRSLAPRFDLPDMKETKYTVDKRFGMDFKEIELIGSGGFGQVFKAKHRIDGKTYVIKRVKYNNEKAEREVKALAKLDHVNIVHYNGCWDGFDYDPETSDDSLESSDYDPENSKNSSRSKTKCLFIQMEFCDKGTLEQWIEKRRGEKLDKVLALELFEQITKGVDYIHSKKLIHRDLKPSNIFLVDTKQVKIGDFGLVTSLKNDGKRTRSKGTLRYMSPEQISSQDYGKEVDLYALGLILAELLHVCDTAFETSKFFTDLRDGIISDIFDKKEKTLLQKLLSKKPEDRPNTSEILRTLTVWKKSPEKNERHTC
Mitogen-activated protein kinase 11 (Homo sapiens), sequence (Q15759 whole entry): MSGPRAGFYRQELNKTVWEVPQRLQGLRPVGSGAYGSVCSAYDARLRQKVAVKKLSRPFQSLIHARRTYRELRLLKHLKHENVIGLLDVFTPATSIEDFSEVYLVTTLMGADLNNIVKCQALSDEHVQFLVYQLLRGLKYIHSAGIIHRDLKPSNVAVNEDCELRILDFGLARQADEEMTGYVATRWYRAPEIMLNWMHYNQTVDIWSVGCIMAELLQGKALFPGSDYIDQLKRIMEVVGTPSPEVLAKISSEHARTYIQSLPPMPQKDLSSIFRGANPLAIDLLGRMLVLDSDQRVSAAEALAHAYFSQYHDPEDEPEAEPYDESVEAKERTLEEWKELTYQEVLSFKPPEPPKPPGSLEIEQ
G protein-coupled receptor kinase 6 (Homo sapiens), sequence (P43250 whole entry, looked up): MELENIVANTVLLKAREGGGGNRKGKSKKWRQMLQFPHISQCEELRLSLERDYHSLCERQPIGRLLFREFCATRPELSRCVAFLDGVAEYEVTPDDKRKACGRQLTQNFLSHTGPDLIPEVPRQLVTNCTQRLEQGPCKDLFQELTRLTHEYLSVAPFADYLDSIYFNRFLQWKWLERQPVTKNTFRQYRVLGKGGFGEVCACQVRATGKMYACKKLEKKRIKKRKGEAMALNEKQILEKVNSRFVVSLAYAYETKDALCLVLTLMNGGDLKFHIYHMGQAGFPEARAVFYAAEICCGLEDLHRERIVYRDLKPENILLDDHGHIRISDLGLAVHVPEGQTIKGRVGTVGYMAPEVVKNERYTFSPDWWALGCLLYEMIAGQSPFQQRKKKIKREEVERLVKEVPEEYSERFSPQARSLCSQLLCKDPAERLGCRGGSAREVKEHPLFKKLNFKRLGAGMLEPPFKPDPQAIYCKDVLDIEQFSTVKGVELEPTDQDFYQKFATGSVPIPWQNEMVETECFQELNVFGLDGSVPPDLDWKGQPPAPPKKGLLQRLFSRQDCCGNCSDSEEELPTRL
Tyrosine-protein kinase Lyn (Homo sapiens), sequence (P07948 2-512 limits assumed): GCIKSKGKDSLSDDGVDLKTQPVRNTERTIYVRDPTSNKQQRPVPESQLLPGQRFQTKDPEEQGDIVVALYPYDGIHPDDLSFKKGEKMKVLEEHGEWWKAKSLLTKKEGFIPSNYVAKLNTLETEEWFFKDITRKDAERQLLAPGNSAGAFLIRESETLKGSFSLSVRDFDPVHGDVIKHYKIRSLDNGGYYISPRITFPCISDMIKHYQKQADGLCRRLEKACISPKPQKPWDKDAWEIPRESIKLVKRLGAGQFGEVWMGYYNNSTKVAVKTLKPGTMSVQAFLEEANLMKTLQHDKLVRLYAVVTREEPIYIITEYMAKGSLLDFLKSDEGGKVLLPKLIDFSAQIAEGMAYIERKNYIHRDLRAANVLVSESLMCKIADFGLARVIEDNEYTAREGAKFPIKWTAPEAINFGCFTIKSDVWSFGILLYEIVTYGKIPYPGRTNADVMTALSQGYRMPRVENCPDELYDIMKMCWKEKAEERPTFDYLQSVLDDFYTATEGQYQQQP
Death-associated protein kinase 1 (Homo sapiens), sequence (P53355 whole entry, looked up): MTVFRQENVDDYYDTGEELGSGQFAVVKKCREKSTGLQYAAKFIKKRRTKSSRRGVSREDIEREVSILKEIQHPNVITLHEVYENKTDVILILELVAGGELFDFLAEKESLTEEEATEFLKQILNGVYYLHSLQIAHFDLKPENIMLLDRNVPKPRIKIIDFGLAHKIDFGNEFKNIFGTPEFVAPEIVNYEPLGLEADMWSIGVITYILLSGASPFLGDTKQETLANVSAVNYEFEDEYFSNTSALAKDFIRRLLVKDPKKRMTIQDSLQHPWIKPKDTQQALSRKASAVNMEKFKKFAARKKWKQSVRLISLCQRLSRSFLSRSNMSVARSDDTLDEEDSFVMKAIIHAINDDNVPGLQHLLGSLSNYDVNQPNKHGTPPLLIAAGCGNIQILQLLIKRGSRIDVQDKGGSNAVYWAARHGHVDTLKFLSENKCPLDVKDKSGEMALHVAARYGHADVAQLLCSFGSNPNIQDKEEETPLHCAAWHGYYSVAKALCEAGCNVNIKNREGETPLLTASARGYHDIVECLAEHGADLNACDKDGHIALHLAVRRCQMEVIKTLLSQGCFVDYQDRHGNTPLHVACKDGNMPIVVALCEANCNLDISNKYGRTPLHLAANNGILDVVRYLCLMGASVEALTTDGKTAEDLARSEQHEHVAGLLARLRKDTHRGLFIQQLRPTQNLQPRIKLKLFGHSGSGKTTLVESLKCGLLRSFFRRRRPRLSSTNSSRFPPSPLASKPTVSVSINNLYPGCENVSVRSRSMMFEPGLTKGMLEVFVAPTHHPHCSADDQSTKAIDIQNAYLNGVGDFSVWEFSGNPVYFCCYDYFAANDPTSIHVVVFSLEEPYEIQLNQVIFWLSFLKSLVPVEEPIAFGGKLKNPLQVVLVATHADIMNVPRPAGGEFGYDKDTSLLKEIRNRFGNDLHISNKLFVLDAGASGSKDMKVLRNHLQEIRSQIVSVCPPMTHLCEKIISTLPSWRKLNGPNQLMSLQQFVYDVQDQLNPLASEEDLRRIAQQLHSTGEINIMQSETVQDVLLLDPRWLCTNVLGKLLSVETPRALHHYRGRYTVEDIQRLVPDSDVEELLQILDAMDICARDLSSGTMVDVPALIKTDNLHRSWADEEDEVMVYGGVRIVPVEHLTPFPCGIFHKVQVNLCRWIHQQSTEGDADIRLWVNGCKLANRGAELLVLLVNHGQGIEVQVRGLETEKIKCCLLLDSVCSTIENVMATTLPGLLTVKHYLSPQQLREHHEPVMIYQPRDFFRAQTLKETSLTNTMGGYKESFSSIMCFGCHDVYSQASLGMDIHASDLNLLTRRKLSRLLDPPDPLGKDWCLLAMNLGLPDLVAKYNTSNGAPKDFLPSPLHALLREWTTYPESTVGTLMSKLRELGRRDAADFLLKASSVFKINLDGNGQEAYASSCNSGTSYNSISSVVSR
Tyrosine-protein kinase Lck (Homo sapiens), sequence (P06239 2-509 limits assumed): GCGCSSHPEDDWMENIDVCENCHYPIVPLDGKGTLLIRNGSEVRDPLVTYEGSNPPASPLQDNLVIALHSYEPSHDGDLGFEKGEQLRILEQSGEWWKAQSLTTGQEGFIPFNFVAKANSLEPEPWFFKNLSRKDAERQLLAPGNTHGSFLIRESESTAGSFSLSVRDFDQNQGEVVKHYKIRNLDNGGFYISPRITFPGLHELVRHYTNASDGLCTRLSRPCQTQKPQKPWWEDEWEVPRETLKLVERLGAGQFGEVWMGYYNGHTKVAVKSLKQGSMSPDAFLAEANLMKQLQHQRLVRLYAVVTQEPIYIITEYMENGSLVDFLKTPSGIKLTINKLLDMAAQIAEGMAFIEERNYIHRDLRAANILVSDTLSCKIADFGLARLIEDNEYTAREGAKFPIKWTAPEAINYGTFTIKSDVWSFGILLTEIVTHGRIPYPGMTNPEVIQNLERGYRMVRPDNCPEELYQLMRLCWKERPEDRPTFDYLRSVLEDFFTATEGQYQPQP

CN1CCN(c2cnc3c(C4CCN(C(=O)c5ccc(OC(F)(F)F)cc5N)CC4)ncnc3c2)CC1 [BAY-885]
inactive: [1] 130% | [2] 107% | [3] 115% | [4] 109% | [5] 111% | [6] 105% | [7] 103% | [8] 111% | [9] 112% | [10] 103% | [11] 127% | [12] 100%
